Test results: US10357493B2, “Metalloenzyme inhibitor compounds” (Selenity Therapeutics (Bermuda), Ltd., priority 2017, dated 2019)

Experiments:
HDAC6 = HDAC6 (Homo sapiens (Human), UniProt Q9UBN7); test: HDAC6 enzymatic assay; assay type: biochemical; conditions: read-out: Human HDAC6 IC50
Procedure, shortened: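 Human HDAC6 activity was measured in duplicate 50 μl reactions holding 2 ng HDAC6, 10 uM of HDAC substrate and test compound in HDAC assay buffer (50 mM Tris-HCl, pH 7.4, 137 mM NaCl, 2.7 mM KCl, 0.05% Tween 20, 5 μg BSA) with 1% DMSO, for 17 hours at room temperature. HDAC Developer was added for 20 minutes before reading fluorescence at 360/460 nm.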

HDAC1 = HDAC1 (Homo sapiens (Human), UniProt Q13547); test: HDAC1 enzymatic assay; assay type: biochemical; conditions: read-out: Human HDAC1 IC50
Procedure, shortened: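 HDAC1 activity was measured in duplicate 50 μl reactions containing 0.5 ng HDAC1, 10 uM of HDAC substrate, and test compound in buffer (50 mM Tris-HCl, pH 7.4, 137 mM NaCl, 2.7 mM KCl, 0.05% Tween 20, 5 μg BSA) with 1% DMSO, incubated 17 hours at room temperature. HDAC Developer was then added for 20 minutes and fluorescence read at 360/460 nm.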

Chain of HDAC1 (Q13547 whole entry): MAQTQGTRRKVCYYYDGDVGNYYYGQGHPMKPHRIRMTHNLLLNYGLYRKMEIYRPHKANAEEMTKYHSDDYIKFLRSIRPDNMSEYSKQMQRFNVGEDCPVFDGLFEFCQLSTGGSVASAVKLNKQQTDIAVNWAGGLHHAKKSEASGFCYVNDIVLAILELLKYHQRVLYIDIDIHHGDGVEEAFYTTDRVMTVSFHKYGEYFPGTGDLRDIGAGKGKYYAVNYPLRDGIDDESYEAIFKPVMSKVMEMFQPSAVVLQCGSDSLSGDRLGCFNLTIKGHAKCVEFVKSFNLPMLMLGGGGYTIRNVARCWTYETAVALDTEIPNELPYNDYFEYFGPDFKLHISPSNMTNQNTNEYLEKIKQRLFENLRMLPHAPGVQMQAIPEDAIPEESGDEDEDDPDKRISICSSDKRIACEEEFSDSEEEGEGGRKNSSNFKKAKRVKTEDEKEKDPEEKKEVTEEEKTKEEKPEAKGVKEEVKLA
Chain of HDAC6 (Q9UBN7 whole entry): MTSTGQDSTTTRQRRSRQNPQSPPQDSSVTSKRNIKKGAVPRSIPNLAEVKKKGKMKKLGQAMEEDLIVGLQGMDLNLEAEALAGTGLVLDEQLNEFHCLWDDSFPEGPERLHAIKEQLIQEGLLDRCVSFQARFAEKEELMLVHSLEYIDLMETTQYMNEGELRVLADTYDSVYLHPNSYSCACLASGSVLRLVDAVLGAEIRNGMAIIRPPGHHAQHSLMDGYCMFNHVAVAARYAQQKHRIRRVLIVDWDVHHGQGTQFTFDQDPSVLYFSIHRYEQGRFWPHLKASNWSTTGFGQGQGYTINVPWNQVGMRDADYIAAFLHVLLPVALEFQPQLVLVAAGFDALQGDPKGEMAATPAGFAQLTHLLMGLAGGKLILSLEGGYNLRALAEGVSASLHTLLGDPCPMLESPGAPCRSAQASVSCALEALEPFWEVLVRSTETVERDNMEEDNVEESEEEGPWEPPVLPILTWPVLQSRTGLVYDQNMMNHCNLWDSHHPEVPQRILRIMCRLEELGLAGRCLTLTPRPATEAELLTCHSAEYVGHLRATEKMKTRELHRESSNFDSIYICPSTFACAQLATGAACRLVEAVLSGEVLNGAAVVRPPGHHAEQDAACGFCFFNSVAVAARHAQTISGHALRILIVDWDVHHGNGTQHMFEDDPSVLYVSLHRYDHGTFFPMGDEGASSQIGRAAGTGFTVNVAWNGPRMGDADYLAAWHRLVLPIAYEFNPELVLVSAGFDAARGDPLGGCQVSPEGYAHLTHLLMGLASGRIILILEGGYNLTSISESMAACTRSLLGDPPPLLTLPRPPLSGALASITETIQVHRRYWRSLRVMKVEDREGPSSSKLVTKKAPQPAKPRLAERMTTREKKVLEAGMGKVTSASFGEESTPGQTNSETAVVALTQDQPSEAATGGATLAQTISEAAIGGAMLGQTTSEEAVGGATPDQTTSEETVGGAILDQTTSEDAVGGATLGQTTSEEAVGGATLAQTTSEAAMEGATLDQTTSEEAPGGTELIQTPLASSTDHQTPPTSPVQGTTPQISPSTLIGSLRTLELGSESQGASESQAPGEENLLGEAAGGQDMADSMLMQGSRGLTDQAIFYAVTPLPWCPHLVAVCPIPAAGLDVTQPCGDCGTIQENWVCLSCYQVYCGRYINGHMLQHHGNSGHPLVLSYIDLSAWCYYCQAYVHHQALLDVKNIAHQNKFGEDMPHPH

Fc1c(Cl)cccc1C1(Nc2ncc(-c3nnc(C(F)F)o3)cn2)CC1 [Example 73, N-(1-(3-chloro-2-fluorophenyl)cyclopropyl)-5-(5-(difluoromethyl)-1,3,4-oxadiazol-2-yl)pyrimidin-2-amine]
IC50 (HDAC6): 17 nM | IC50 (HDAC1): > 30000 nM

Fc1cc(F)c(C2(Nc3ncc(-c4nnc(C(F)F)o4)cn3)CC2)c(F)c1 [Example 74, 5-(5-(difluoromethyl)-1,3,4-oxadiazol-2-yl)-N-(1-(2,4,6-trifluorophenyl)cyclopropyl) pyrimidin-2-amine]
IC50 (HDAC6): 19 nM | IC50 (HDAC1): > 30000 nM

Fc1ccc(OC(F)(F)F)cc1C1(Nc2ncc(-c3nnc(C(F)F)o3)cn2)CC1 [Example 75, 5-(5-(difluoromethyl)-1,3,4-oxadiazol-2-yl)-N-(1-(2-fluoro-5-(trifluoromethoxy)phenyl)cyclopropyl)pyrimidin-2-amine]
IC50 (HDAC6): 38 nM | IC50 (HDAC1): > 30000 nM

Fc1ccc(Cl)cc1C1(Nc2ncc(-c3nnc(C(F)F)o3)cn2)CC1 [Example 76, N-(1-(5-chloro-2-fluorophenyl)cyclopropyl)-5-(5-(difluoromethyl)-1,3,4-oxadiazol-2-yl)pyrimidin-2-amine]
IC50 (HDAC6): 14 nM | IC50 (HDAC1): > 30000 nM

Cc1cccc(C2(Nc3ncc(-c4nnc(C(F)F)o4)cn3)CC2)c1Cl [Example 77, N-(1-(2-chloro-3-methylphenyl)cyclopropyl)-5-(5-(difluoromethyl)-1,3,4-oxadiazol-2-yl)pyrimidin-2-amine]
IC50 (HDAC6): 28 nM | IC50 (HDAC1): > 30000 nM

O=C(NCC(Nc1ncc(-c2nnc(C(F)F)o2)cn1)c1ccc(F)cc1)c1ccccc1 (centres unmarked) [Example 79, N-(2-((5-(5-(difluoromethyl)-1,3,4-oxadiazol-2-yl)pyrimidin-2-yl)amino)-2-(4-fluorophenyl)ethyl)benzamide]
IC50 (HDAC6): 76 nM | IC50 (HDAC1): > 30000 nM

Fc1ccc(Cl)c(C2(Nc3ncc(-c4nnc(C(F)F)o4)cn3)CC2)c1 [Example 80, N-(1-(2-chloro-5-fluorophenyl)cyclopropyl)-5-(5-(difluoromethyl)-1,3,4-oxadiazol-2-yl)pyrimidin-2-amine]
IC50 (HDAC6): 23 nM | IC50 (HDAC1): > 30000 nM

FC(F)c1nnc(-c2cnc(NC3(c4cc(C(F)(F)F)ccc4Cl)CC3)nc2)o1 [Example 81, N-(1-(2-chloro-5-(trifluoromethyl)phenyl)cyclopropyl)-5-(5-(difluoromethyl)-1,3,4-oxadiazol-2-yl)pyrimidin-2-amine]
IC50 (HDAC6): 210 nM | IC50 (HDAC1): > 30000 nM

FC(F)c1nnc(-c2cnc(NC3(c4ccnc(Br)c4)CC3)nc2)o1 [Example 82, N-(1-(2-bromopyridin-4-yl)cyclopropyl)-5-(5-(difluoromethyl)-1,3,4-oxadiazol-2-yl)pyrimidin-2-amine]
IC50 (HDAC6): 35 nM | IC50 (HDAC1): > 30000 nM

N#Cc1cc(C2(Nc3ncc(-c4nnc(C(F)F)o4)cn3)CC2)ccn1 [Example 83, 4-(1-((5-(5-(difluoromethyl)-1,3,4-oxadiazol-2-yl)pyrimidin-2-yl)amino)cyclopropyl)picolinonitrile]
IC50 (HDAC6): 160 nM | IC50 (HDAC1): > 30000 nM

Fc1cc(OCC(F)(F)F)ccc1C1(Nc2ncc(-c3nnc(C(F)F)o3)cn2)CC1 [Example 84, 5-(5-(difluoromethyl)-1,3,4-oxadiazol-2-yl)-N-(1-(2-fluoro-4-(2,2,2-trifluoroethoxy)phenyl)cyclopropyl)pyrimidin-2-amine]
IC50 (HDAC6): 77 nM | IC50 (HDAC1): > 30000 nM

FC(F)c1nnc(-c2cnc(NC3(c4cccc(C(F)(F)F)c4Cl)CC3)nc2)o1 [Example 85, N-(1-(2-chloro-3-(trifluoromethyl)phenyl)cyclopropyl)-5-(5-(difluoromethyl)-1,3,4-oxadiazol-2-yl)pyrimidin-2-amine]
IC50 (HDAC6): 62 nM | IC50 (HDAC1): > 30000 nM

FC(F)Oc1cccc(C2(Nc3ncc(-c4nnc(C(F)F)o4)cn3)CC2)c1Cl [Example 86, N-(1-(2-chloro-3-(difluoromethoxy)phenyl)cyclopropyl)-5-(5-(difluoromethyl)-1,3,4-oxadiazol-2-yl)pyrimidin-2-amine]
IC50 (HDAC6): 28 nM | IC50 (HDAC1): > 30000 nM

FC(F)c1nnc(-c2cnc(NC3(c4cccc(OCC(F)(F)F)c4Cl)CC3)nc2)o1 [Example 87, N-(1-(2-chloro-3-(2,2,2-trifluoroethoxy)phenyl)cyclopropyl)-5-(5-(difluoromethyl)-1,3,4-oxadiazol-2-yl)pyrimidin-2-amine]
IC50 (HDAC6): 120 nM | IC50 (HDAC1): > 30000 nM

Fc1ccc(C2(Nc3ncc(-c4nnc(C(F)F)o4)cn3)CCC2)cc1 [Example 88]
IC50 (HDAC6): 29 nM | IC50 (HDAC1): > 30000 nM

FC(F)c1nnc(-c2cnc(NC3(c4cc(OCC(F)(F)F)ccc4Cl)CC3)nc2)o1 [Example 89, N-(1-(2-chloro-5-(2,2,2-trifluoroethoxy)phenyl)cyclopropyl)-5-(5-(difluoromethyl)-1,3,4-oxadiazol-2-yl)pyrimidin-2-amine]
IC50 (HDAC6): 100 nM | IC50 (HDAC1): > 30000 nM

Cc1ccc(Cl)c(C2(Nc3ncc(-c4nnc(C(F)F)o4)cn3)CC2)c1 [Example 90, N-(1-(2-chloro-5-methylphenyl)cyclopropyl)-5-(5-(difluoromethyl)-1,3,4-oxadiazol-2-yl)pyrimidin-2-amine]
IC50 (HDAC6): 35 nM | IC50 (HDAC1): > 30000 nM

Fc1cccc(C2(Nc3ncc(-c4nnc(C(F)F)o4)cn3)CC2)c1Cl [Example 91, N-(1-(2-chloro-3-fluorophenyl)cyclopropyl)-5-(5-(difluoromethyl)-1,3,4-oxadiazol-2-yl)pyrimidin-2-amine]
IC50 (HDAC6): 21 nM | IC50 (HDAC1): > 30000 nM

CC(O)C(Nc1ncc(-c2nnc(C(F)F)o2)cn1)c1ccc(F)cc1F (centres unmarked) [Example 93, 1-((5-(5-(difluoromethyl)-1,3,4-oxadiazol-2-yl)pyrimidin-2-yl)amino)-1-(2,4-difluorophenyl)propan-2-ol]
IC50 (HDAC6): 43 nM | IC50 (HDAC1): > 30000 nM

NCC(Nc1ncc(-c2nnc(C(F)F)o2)cn1)c1ccc(F)cc1 (centres unmarked) [Example 96, N1-(5-(5-(difluoromethyl)-1,3,4-oxadiazol-2-yl)pyrimidin-2-yl)-1-(4-fluorophenyl)ethane-1,2-diamine]
IC50 (HDAC6): 58 nM | IC50 (HDAC1): > 30000 nM

CC(C)(Nc1ncc(-c2nnc(C(F)F)o2)cn1)c1ccc(F)cc1F [Example 97, 5-(5-(difluoromethyl)-1,3,4-oxadiazol-2-yl)-N-(2-(2,4-difluorophenyl)propan-2-yl)pyrimidin-2-amine]
IC50 (HDAC6): 34 nM | IC50 (HDAC1): > 30000 nM

CC(C)(Nc1ncc(-c2nnc(C(F)F)o2)cn1)c1c(F)cccc1F [Example 98, 5-(5-(difluoromethyl)-1,3,4-oxadiazol-2-yl)-N-(2-(2,6-difluorophenyl)propan-2-yl)pyrimidin-2-amine]
IC50 (HDAC6): 16 nM | IC50 (HDAC1): > 30000 nM

C[C@H](Nc1ncc(-c2nnc(C(F)F)o2)cn1)c1ccc(F)cc1F [Example 99-S]
IC50 (HDAC6): > 1000 nM | IC50 (HDAC1): > 30000 nM

Fc1cccc(F)c1C(CC(F)(F)F)Nc1ncc(-c2nnc(C(F)F)o2)cn1 (centres unmarked) [Example 102, 5-(5-(difluoromethyl)-1,3,4-oxadiazol-2-yl)-N-(1-(2,6-difluorophenyl)-3,3,3-trifluoropropyl)pyrimidin-2-amine]
IC50 (HDAC6): 92 nM | IC50 (HDAC1): > 30000 nM

COc1cc(F)c(C2(Nc3ncc(-c4nnc(C(F)F)o4)cn3)CC2)c(F)c1 [Example 106, N-(1-(2,6-difluoro-4-methoxyphenyl)cyclopropyl)-5-(5-(difluoromethyl)-1,3,4-oxadiazol-2-yl)pyrimidin-2-amine]
IC50 (HDAC6): 16 nM | IC50 (HDAC1): > 30000 nM

CCCS(=O)(=O)NCC(Nc1ncc(-c2nnc(C(F)F)o2)cn1)c1ccc(F)cc1 (centres unmarked) [Example 111, N-(2-((5-(5-(difluoromethyl)-1,3,4-oxadiazol-2-yl)pyrimidin-2-yl)amino)-2-(4-fluorophenyl)ethyl)propane-1-sulfonamide]
IC50 (HDAC6): 32 nM | IC50 (HDAC1): > 30000 nM

CC(C)CS(=O)(=O)NCC(Nc1ncc(-c2nnc(C(F)F)o2)cn1)c1ccc(F)cc1 (centres unmarked) [Example 112, N-(2-((5-(5-(difluoromethyl)-1,3,4-oxadiazol-2-yl)pyrimidin-2-yl)amino)-2-(4-fluorophenyl)ethyl)-2-methylpropane-1-sulfonamide]
IC50 (HDAC6): 32 nM | IC50 (HDAC1): > 30000 nM

CN(CC(Nc1ncc(-c2nnc(C(F)F)o2)cn1)c1ccc(F)cc1)S(C)(=O)=O (centres unmarked) [Example 113, N-(2-((5-(5-(difluoromethyl)-1,3,4-oxadiazol-2-yl)pyrimidin-2-yl)amino)-2-(4-fluorophenyl)ethyl)-N-methylmethanesulfonamide]
IC50 (HDAC6): 21 nM | IC50 (HDAC1): > 30000 nM

O=C(NCC(Nc1ncc(-c2nnc(C(F)F)o2)cn1)c1ccc(F)cc1)C(F)(F)F (centres unmarked) [Example 114, N-(2-((5-(5-(difluoromethyl)-1,3,4-oxadiazol-2-yl)pyrimidin-2-yl)amino)-2-(4-fluorophenyl)ethyl)-2,2,2-trifluoroacetamide]
IC50 (HDAC6): 50 nM | IC50 (HDAC1): > 30000 nM

CS(=O)(=O)N(CC(Nc1ncc(-c2nnc(C(F)F)o2)cn1)c1ccc(F)cc1)CC(F)(F)F (centres unmarked) [Example 118, N-(2-((5-(5-(difluoromethyl)-1,3,4-oxadiazol-2-yl)pyrimidin-2-yl)amino)-2-(4-fluorophenyl)ethyl)-N-(2,2,2-trifluoroethyl)methanesulfonamide]
IC50 (HDAC6): 72 nM | IC50 (HDAC1): > 30000 nM

CS(=O)(=O)NCCC(Nc1ncc(-c2nnc(C(F)F)o2)cn1)c1ccc(F)cc1 (centres unmarked) [Example 125, N-(3-((5-(5-(difluoromethyl)-1,3,4-oxadiazol-2-yl)pyrimidin-2-yl)amino)-3-(4-fluorophenyl)propyl)methanesulfonamide]
IC50 (HDAC6): 26 nM | IC50 (HDAC1): > 30000 nM
